According to patent publication US20250171438A1 (Agios Pharmaceuticals, Inc., priority 2022, published 2025):

What follows are molecules tested against T1, human PAH with the R408W mutation (Homo sapiens, UniProt P00439, R408W) (assay: Cell Based Phenylalanine Flux Assay). Conditions: A375 cells expressing human R408W PAH; 24 hrs compound incubation; 13C-Tyrosine by LC-MS; average where tested multiple times; read-out: AC50.
T1 construct: expressed in transfected cells
T1 sequence (P00439 1-452 R408W): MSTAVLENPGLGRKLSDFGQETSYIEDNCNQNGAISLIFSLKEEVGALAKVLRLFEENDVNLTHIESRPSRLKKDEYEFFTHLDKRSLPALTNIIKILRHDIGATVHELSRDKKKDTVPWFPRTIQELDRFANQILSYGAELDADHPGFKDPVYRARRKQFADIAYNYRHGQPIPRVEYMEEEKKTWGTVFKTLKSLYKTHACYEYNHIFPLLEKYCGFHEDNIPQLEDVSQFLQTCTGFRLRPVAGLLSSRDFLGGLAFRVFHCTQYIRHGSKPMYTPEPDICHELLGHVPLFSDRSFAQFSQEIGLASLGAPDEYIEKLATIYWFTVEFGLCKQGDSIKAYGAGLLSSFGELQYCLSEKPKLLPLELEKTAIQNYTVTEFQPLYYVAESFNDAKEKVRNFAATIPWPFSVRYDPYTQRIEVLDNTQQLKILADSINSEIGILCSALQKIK
Parameters: scale not given here

Compound	AC50
O=C(c1cnn2ccccc12)N1CCc2[nH]cnc2[C@H]1c1nc2c(Cl)cccc2s1 [Example 1221, (S)-(4-(4-chlorobenzo[d]thiazol-2-yl)-6,7-dihydro-1H-imidazo[4,5-c]pyridin-5(4H)-yl)(pyrazolo[1,5-a]pyridin-3-yl)methanone]	< 0.5 µM
O=C(c1oc(-c2ccccn2)nc1C1CC1)N1CCCc2[nH]cnc2[C@@H]1c1nc2ccccc2s1 [Example 2120, (R)-(4-(benzo[d]thiazol-2-yl)-7,8-dihydroimidazo[4,5-c]azepin-5(1H,4H,6H)-yl)(4-cyclopropyl-2-(pyridin-2-yl)oxazol-5-yl)methanone]	1 to 5 µM
CC(C)(C)c1ncc(C(=O)N2CCc3[nH]cnc3[C@@H]2c2nc3ccccc3s2)s1 [Example 1422, (R)-(4-(benzo[d]thiazol-2-yl)-6,7-dihydro-1H-imidazo[4,5-c]pyridin-5(4H)-yl)(2-(tert-butyl)thiazol-5-yl)methanone]	1 to 5 µM
CC(C)(C)c1ncc(C(=O)N2CCc3[nH]cnc3[C@@H]2c2nc3c(F)cccc3s2)o1 [Example 1429, (R)-(2-(tert-butyl)oxazol-5-yl)(4-(4-fluorobenzo[d]thiazol-2-yl)-6,7-dihydro-1H-imidazo[4,5-c]pyridin-5(4H)-yl)methanone]	0.5 to 1 µM
O=C(c1oc(-c2ccc(F)cn2)nc1C(F)F)N1CCc2[nH]cnc2[C@H]1c1nc2ccccc2s1 [Example 1746]	< 0.5 µM
CC(C)(O)c1nc(C(F)F)c(C(=O)N2CCc3[nH]cnc3[C@H]2c2nc3c(C(F)(F)F)cccc3s2)o1 [Example 2103, (S)-(4-(difluoromethyl)-2-(2-hydroxypropan-2-yl)oxazol-5-yl)(4-(4-(trifluoromethyl)benzo[d]thiazol-2-yl)-6,7-dihydro-1H-imidazo[4,5-c]pyridin-5(4H)-yl)methanone]	< 0.5 µM
Cn1nccc1C(=O)N1CCc2[nH]cnc2[C@@H]1c1nc2c(C(F)(F)F)cccc2s1 [Example 2112, (R)-(1-methyl-1H-pyrazol-5-yl)(4-(4-(trifluoromethyl)benzo[d]thiazol-2-yl)-6,7-dihydro-1H-imidazo[4,5-c]pyridin-5(4H)-yl)methanone]	1 to 5 µM
Nc1cc(C(=O)N2CCc3[nH]cnc3[C@H]2c2nc3ccccc3s2)n(C(F)F)n1 [Example 2051]	< 0.5 µM
O=C(c1cnn2ccc(F)cc12)N1CCc2[nH]cnc2[C@@H]1c1nc2c(F)cccc2s1 [Example 1169, (R)-(4-(4-fluorobenzo[d]thiazol-2-yl)-6,7-dihydro-1H-imidazo[4,5-c]pyridin-5(4H)-yl)(5-fluoropyrazolo[1,5-a]pyridin-3-yl)methanone]	1 to 5 µM
Cn1ncnc1C(=O)N1CCc2[nH]cnc2[C@H]1c1nc2ccccc2s1 [Example 1813]	0.5 to 1 µM
O=C(CCC1CCCC1)N1CCc2[nH]cnc2[C@@H]1c1nc2ccccc2[nH]1 [Example 912, (R)-1-(4-(1H-benzo[d]imidazol-2-yl)-6,7-dihydro-1H-imidazo[4,5-c]pyridin-5(4H)-yl)-3-cyclopentylpropan-1-one]	> 5 µM
O=C(c1cnc(-c2ccccc2)o1)N1CCc2[nH]cnc2[C@@H]1c1nc2ccccc2s1 [Example 1208, (R)-(4-(benzo[d]thiazol-2-yl)-6,7-dihydro-1H-imidazo[4,5-c]pyridin-5(4H)-yl)(2-phenyloxazol-5-yl)methanone]	1 to 5 µM
Cn1nc(Cl)nc1C(=O)N1CCc2[nH]cnc2[C@H]1c1nc2c(F)cccc2s1 [Example 1955]	< 0.5 µM
CC(C)(C)c1ncc(C(=O)N2CCc3[nH]cnc3[C@H]2c2nc3ccccc3s2)o1 [Example 1427]	< 0.5 µM
Cc1nc(-c2ccccn2)oc1C(=O)N1CCc2[nH]cnc2[C@@H]1c1nc2ccccc2s1 [Example 1372, (R)-(4-(benzo[d]thiazol-2-yl)-6,7-dihydro-1H-imidazo[4,5-c]pyridin-5(4H)-yl)(4-methyl-2-(pyridin-2-yl)oxazol-5-yl)methanone]	> 5 µM
O=C(c1cn[nH]c1C(F)F)N1CCc2[nH]cnc2[C@@H]1c1nc2c(F)cccc2s1 [Example 1860, (R)-(5-(difluoromethyl)-1H-pyrazol-4-yl)(4-(4-fluorobenzo[d]thiazol-2-yl)-6,7-dihydro-1H-imidazo[4,5-c]pyridin-5(4H)-yl)methanone]	1 to 5 µM
Cn1cc(-c2nc(C3CC3)c(C(=O)N3CCc4[nH]cnc4[C@H]3c3nc4ccccc4s3)o2)cn1 [Example 1518]	< 0.5 µM
O=C(c1oc(CCC2CC2)nc1C(F)(F)F)N1CCc2[nH]cnc2[C@@H]1c1nc2ccccc2s1 [Example 1580, (R)-(4-(benzo[d]thiazol-2-yl)-6,7-dihydro-1H-imidazo[4,5-c]pyridin-5(4H)-yl)(2-(2-cyclopropylethyl)-4-(trifluoromethyl)oxazol-5-yl)methanone]	< 0.5 µM
Cc1cnn(C)c1-c1nnc(C(=O)N2CCc3[nH]cnc3[C@H]2c2nc3ccccc3s2)o1 [Example 1947]	< 0.5 µM
Cn1nc(C(F)F)cc1C(=O)N1CCc2[nH]cnc2[C@@H]1c1nc2c(F)cccc2s1 [Example 1732, (R)-(3-(difluoromethyl)-1-methyl-1H-pyrazol-5-yl)(4-(4-fluorobenzo[d]thiazol-2-yl)-6,7-dihydro-1H-imidazo[4,5-c]pyridin-5(4H)-yl)methanone]	1 to 5 µM
O=C(c1oc(N2CCC(F)CC2)nc1C(F)F)N1CCc2[nH]cnc2[C@H]1c1nc2ccccc2s1 [Example 1707]	< 0.5 µM
COCc1ncc(C(=O)N2CCc3[nH]cnc3[C@H]2c2nc3ccccc3s2)s1 [Example 1185]	0.5 to 1 µM
O=C(c1cnn(CC(F)(F)F)c1C(F)F)N1CCc2[nH]cnc2[C@@H]1c1nc2c(F)cccc2s1 [Example 1976, (R)-(5-(difluoromethyl)-1-(2,2,2-trifluoroethyl)-1H-pyrazol-4-yl)(4-(4-fluorobenzo[d]thiazol-2-yl)-6,7-dihydro-1H-imidazo[4,5-c]pyridin-5(4H)-yl)methanone]	0.5 to 1 µM
CC(=O)Cn1cc(C(=O)N2CCc3[nH]cnc3[C@H]2c2nc3c(F)cccc3s2)c(Cl)n1 [Example 1991, (S)-1-(3-chloro-4-(4-(4-fluorobenzo[d]thiazol-2-yl)-4,5,6,7-tetrahydro-1H-imidazo[4,5-c]pyridine-5-carbonyl)-1H-pyrazol-1-yl)propan-2-one]	< 0.5 µM
CCc1nnc(CCC(=O)N2CCc3[nH]cnc3[C@H]2c2nc3ccccc3s2)s1 [Example 1115]	0.5 to 1 µM
CC(C)(O)Cn1cc(C(=O)N2CCc3[nH]cnc3[C@H]2c2nc3c(F)cccc3s2)c(Cl)n1 [Example 1994]	1 to 5 µM
O=C(c1ocnc1C1CC1)N1CCc2[nH]cnc2[C@H]1c1nc2c(F)cccc2s1 [Example 1495]	< 0.5 µM
CC(C)(O)c1nnc(C(=O)N2CC3(CC3)c3[nH]cnc3[C@@H]2c2nc3ccccc3s2)o1 [Example 1695, (R)-(4′-(benzo[d]thiazol-2-yl)spiro[cyclopropane-1,7′-imidazo[4,5-c]pyridin]-5′(1′H,4′H,6′H)-yl)(5-(2-hydroxypropan-2-yl)-1,3,4-oxadiazol-2-yl)methanone]	> 5 µM

Same assay, conditions: A375 cells expressing human R408W PAH; 24 hrs with compound; 13C-Tyrosine by LC-MS; average where tested multiple times

Compound	AC50
NC(=O)c1nc(-c2ccccn2)oc1C(=O)N1CCc2[nH]cnc2[C@H]1c1nc2ccccc2s1 (single isomer, unassigned)	E, E
COCc1ccc2c(C(=O)N3CCc4[nH]cnc4[C@@H]3c3nc4ccccc4s3)c(C(F)F)nn2c1 (single isomer, unassigned)	E, E

Same assay, conditions: A375 cells expressing human R408W PAH; 24 hrs with compound; 13C-Tyrosine by LC-MS; average where tested multiple times; read-out: AC50

Compound	AC50
Cc1nnc(N2CCc3[nH]cnc3C2c2nc3ccccc3s2)o1 (stereo not shown)	> 5 µM
O=C(C1CC1)N1CCc2[nH]cnc2C1c1nc2cc(F)ccc2s1 (stereo not shown)	> 5 µM
Cc1nnc(C(=O)N2CCc3[nH]cnc3C2c2nc3ccccc3[nH]2)s1 (stereo not shown)	1 to 5 µM
Cn1cc(-c2cnc(CC(=O)N3CCc4[nH]cnc4C3c3nc4ccccc4s3)s2)cn1 (stereo not shown)	1 to 5 µM
O=C(c1cnn2cccc(F)c12)N1CCc2[nH]cnc2[C@H]1c1nc2cc(F)ccc2s1 (single isomer, unassigned)	1 to 5 µM
O=C(c1nnc(-c2ccccn2)o1)N1CCc2[nH]cnc2C1c1nc2ccccc2[nH]1 (stereo not shown)	1 to 5 µM
O=C(c1cnn2c(Br)cccc12)N1CCc2[nH]cnc2C1c1nc2ccccc2[nH]1 (stereo not shown)	1 to 5 µM
O=C(c1cc(Cl)n[nH]1)N1CCc2[nH]cnc2C1c1nc2c(F)cccc2s1 (stereo not shown)	1 to 5 µM
CN(C)Cc1ccc2c(C(=O)N3CC4(CC4)c4[nH]cnc4C3c3nc4ccccc4s3)cnn2c1 (stereo not shown)	> 5 µM
O=C(CCc1nccs1)N1CCc2nc[nH]c2C1c1nc2cc(Cl)ccc2s1 (stereo not shown)	1 to 5 µM
COCc1ccc2c(C(=O)N3CC4(CC4)c4[nH]cnc4C3c3nc4ccccc4s3)cnn2c1 (stereo not shown)	1 to 5 µM
Cc1ncc(CC(=O)N2CCc3[nH]cnc3C2c2nc3ccccc3s2)o1 (stereo not shown)	> 5 µM
O=C(c1ncn2ccccc12)N1CCc2[nH]cnc2C1c1nc2ccc(F)cc2s1 (stereo not shown)	1 to 5 µM
Cn1ncc(C(=O)N2CCc3[nH]cnc3C2c2nc3c(F)cccc3s2)c1N (stereo not shown)	> 5 µM
O=C(c1cnn2cc(N3CCCC3)ccc12)N1CCc2[nH]cnc2C1c1nc2ccccc2s1 (stereo not shown)	> 5 µM

Same assay, conditions: AC50, A375 cells expressing human R408W PAH; 24 hrs with compound; 13C-Tyrosine by LC-MS; average where tested multiple times

Compound	AC50
Cc1nnc(C(=O)N2CCc3[nH]cnc3C2c2nc3ccc(Cl)cc3[nH]2)s1 (stereo not shown)	1 to 5 µM
